The text below walks through data of publication PMC10489750, “Exploration of Baicalein-Core Derivatives as Potent Antifungal Agents: SAR and Mechanism Insights” (Molecules, 2023).

The target in this experiment is T1, Eno1 (Candida albicans, UniProt P30575).
T1 sequence (P30575 1-440): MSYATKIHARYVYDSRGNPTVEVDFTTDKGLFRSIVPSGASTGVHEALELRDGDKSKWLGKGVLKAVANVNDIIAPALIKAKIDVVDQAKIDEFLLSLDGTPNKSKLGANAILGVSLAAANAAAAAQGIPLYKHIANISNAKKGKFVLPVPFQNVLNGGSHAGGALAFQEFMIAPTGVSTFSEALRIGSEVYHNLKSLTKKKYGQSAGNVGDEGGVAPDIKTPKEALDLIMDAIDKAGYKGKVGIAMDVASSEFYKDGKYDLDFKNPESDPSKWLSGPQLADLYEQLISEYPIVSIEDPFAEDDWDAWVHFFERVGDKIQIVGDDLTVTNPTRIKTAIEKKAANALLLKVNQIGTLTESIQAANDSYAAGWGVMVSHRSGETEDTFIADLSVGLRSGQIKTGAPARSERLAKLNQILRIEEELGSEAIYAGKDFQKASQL
Nature of the experiment: in vitro enolase assay, […] compound, absorbance at […] nm, […] Eno1. It is filed as biochemical.

Structures are written as SMILES.

With `Nc1ccc(-c2cc(=O)c3c(O)c(O)c(O)cc3o2)cc1` [B5, 2-(4-aminophenyl)-5,6,7-trihydroxy-4H-chromen-4-one], the “in vitro enolase assay, 200 μM compound, absorbance at 240 nm, 30 nM Eno1” value is reported as “B5 exhibited some inhibitory ability in in vitro enzyme inhibition assay, although it was weaker than BE”.
